{"source": "patent US7888341B2", "about": "“Combination of glivec (STI571) with a cyclin-dependent kinase inhibitor, especially flavopiridol, in the treatment of cancer” (The United States of America as represented by the …, priority 2002, dated 2011)", "key": {"[1]": {"test_system": "K562R cells (drug-resistant K562, high Bcr/Abl protein)", "experiment": "Apoptosis in drug-resistant K562R cells, morphologic assessment", "type": "cell-based, human", "method": "(§1) They are cultured in drug-free medium prior to all experimental procedures.\nValues represent the means for three separate experiments performed in triplicate±S.D."}, "[2]": {"test_system": "K562 human leukemia cells", "experiment": "Apoptosis in K562 cells, morphologic assessment of Wright-Giemsa-stained slides", "type": "cell-based", "method": "as §1\nAssessment of apoptosis: Following drug exposures, cytocentrifuge preparations are stained with Wright-Giemsa and viewed by light microscopy to evaluate the extent of apoptosis as described in Wang Z. et al., 1999 Cancer Res. 59, 1259-67.\nValues represent the means for three separate experiments performed in triplicate±SD (standard deviation).\nValues represent the means for three separate experiments performed in triplicate±S.D (standard deviation).\nThe Combination Index (CI) is determined in relation to the fraction of cells affected using Median Dose Effect analysis. Results are representative of three separate experiments."}}, "note": "Counter-ions that a name gives are not always drawn.", "data": [{"compound": "CN1CC[C@H](c2c(O)cc(O)c3c(=O)cc(-c4ccccc4Cl)oc23)[C@H](O)C1", "note": "[FP, 4H-1-benzopyran-4-one,2-(2-chlorophenyl)-5,7-dihydroxy-8-(3-hydroxy-1-methyl-4-piperidinyl)-,hydrochloride, (−)-cis-]", "values": [{"measurement": "toxicity", "setting": "[1]; 48-hr exposure, 150 nM FP", "value": "non-toxic"}, {"measurement": "percentage of apoptotic cells, mean", "setting": "[1]; 48 h, FP 200 nM", "value": 1.77, "unit": "%"}, {"measurement": "cell death", "setting": "[2]; K562, 150 nM FP by itself", "value": "< 5", "unit": "%"}, {"measurement": "percentage of apoptotic cells, mean", "setting": "[2]; K562, 24 h, FP 150 nM (time course)", "value": 1.40, "unit": "%"}, {"measurement": "percentage of apoptotic cells, mean", "setting": "[2]; K562, 48 h, FP 50 nM without SALT I", "value": 1.9, "unit": "%"}, {"measurement": "percentage of apoptotic cells, mean", "setting": "[2]; K562, 48 h, FP 100 nM without SALT I", "value": 2.4, "unit": "%"}, {"measurement": "percentage of apoptotic cells, mean", "setting": "[2]; K562, 48 h, FP 150 nM (time course)", "value": 3.33, "unit": "%"}, {"measurement": "percentage of apoptotic cells, mean", "setting": "[2]; K562, 48 h, FP 150 nM without SALT I", "value": 3.2, "unit": "%"}, {"measurement": "percentage of apoptotic cells, mean", "setting": "[2]; K562, 48 h, FP 200 nM without SALT I", "value": 6.1, "unit": "%"}, {"measurement": "percentage of apoptotic cells, mean", "setting": "[2]; K562, 48 h, FP 300 nM without SALT I", "value": 18.5, "unit": "%"}, {"measurement": "percentage of apoptotic cells, mean", "setting": "[2]; K562, 48 h, SALT I 0 nM + FP 150 nM (FP alone)", "value": 0.9, "unit": "%"}]}, {"compound": "Cc1ccc(NC(=O)c2ccc(CN3CCN(C)CC3)cc2)cc1Nc1nccc(-c2cccnc2)n1", "note": "[SALT I, 4-[(4-methyl-1-piperazin-1-ylmethyl)-N-[4-methyl-3-[[4-(3-pyridinyl)-2-pyrimidinyl]amino]phenyl]benzamide methanesulfonate]", "values": [{"measurement": "percentage of apoptotic cells, mean", "setting": "[2]; K562, 24 h, SALT I 200 nM (time course)", "value": 2.57, "unit": "%"}, {"measurement": "percentage of apoptotic cells, mean", "setting": "[2]; K562, 48 h, FP 0 nM + SALT I 200 nM (SALT I alone)", "value": 5.7, "unit": "%"}, {"measurement": "percentage of apoptotic cells, mean", "setting": "[2]; K562, 48 h, SALT I 50 nM without FP", "value": 1.9, "unit": "%"}, {"measurement": "percentage of apoptotic cells, mean", "setting": "[2]; K562, 48 h, SALT I 100 nM without FP", "value": 1.8, "unit": "%"}, {"measurement": "percentage of apoptotic cells, mean", "setting": "[2]; K562, 48 h, SALT I 150 nM without FP", "value": 3.0, "unit": "%"}, {"measurement": "percentage of apoptotic cells, mean", "setting": "[2]; K562, 48 h, SALT I 200 nM (time course)", "value": 5.97, "unit": "%"}, {"measurement": "percentage of apoptotic cells, mean", "setting": "[2]; K562, 48 h, SALT I 200 nM without FP", "value": 4.6, "unit": "%"}, {"measurement": "percentage of apoptotic cells, mean", "setting": "[2]; K562, 48 h, SALT I 250 nM without FP", "value": 8.9, "unit": "%"}, {"measurement": "percentage of apoptotic cells, mean", "setting": "[2]; K562, 48 h, SALT I 300 nM without FP", "value": 20.3, "unit": "%"}, {"measurement": "percentage of apoptotic cells, mean", "setting": "[2]; K562, 48 h, SALT I 400 nM without FP", "value": 30.8, "unit": "%"}, {"measurement": "percentage of apoptotic cells, mean", "setting": "[2]; K562, 48 h, SALT I 500 nM without FP", "value": 53.8, "unit": "%"}, {"measurement": "induction of apoptosis", "setting": "[2]; K562, 48 hr, SALT I concentrations <300 nM", "value": "weakly induces apoptosis"}, {"measurement": "apoptosis", "setting": "[2]; parental K562S cells, 1.5 μM SALT I, 48 hr", "value": "> 95", "unit": "%"}]}]}
